Here are results for one compound from patent US5250540A, “Aminomethyl-substituted 2,3-dihydropyrano[2,3-b]pyridines and their use in medicaments” (Bayer Aktiengesellschaft, priority 1991, dated 1993).

The assay deals with 5-HT1-receptor (5-hydroxytryptamine receptors of subtype 1). Description: receptor binding studies using preparations of calf hippocampus membranes, radioligand 3H-serotonin. To be noted: ^3 H-serotonin as radioactively labelled ligand. An excerpt: In Table 1 the high affinity of the compounds according to the invention for 5-hydroxytryptamine receptors of subtype 1 is exemplified. The values given relate to data obtained from receptor binding studies using preparations of calf hippocampus membranes. The radioactively labelled ligand used for this was ^3 H-serotonin.

Counter-ions that a name gives are not always drawn.

As to `O=C1c2ccccc2S(=O)(=O)N1CCCCNCC1CCc2cccnc2O1` (stereo not shown) [Example 4, 2-N-(4-Butylsaccharinyl)-aminomethyl-2,3-dihydropyrano2,3-b]pyridine HCl salt], the Ki – broadly, a measure of affinity in units of concentration, obtained from inhibition or displacement – was 1 nM.
